The record followed here is article PMC10886839, “Electrochemical DNA Cleavage Sensing for EcoRV Activity and Inhibition with an ERGO Electrode” (Biosensors, 2024).

In the experiment the target is T1, EcoRV (Escherichia coli, UniProt P04390).
T1 construct: gene ecoRVR; restriction endonuclease, dosed in U/mL; homodimer (known biology)
T1 sequence (P04390 2-245): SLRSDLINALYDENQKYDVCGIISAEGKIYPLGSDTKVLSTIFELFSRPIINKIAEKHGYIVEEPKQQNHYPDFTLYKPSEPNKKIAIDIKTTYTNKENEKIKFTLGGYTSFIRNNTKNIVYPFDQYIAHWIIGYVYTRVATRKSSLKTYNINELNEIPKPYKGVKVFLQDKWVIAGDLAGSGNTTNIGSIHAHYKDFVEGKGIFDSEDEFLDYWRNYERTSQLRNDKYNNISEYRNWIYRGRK
Put plainly: electrochemical DNA cleavage assay (DPV of methylene blue-labelled DNA on ERGO electrode). It counts as biochemical.

In the case of `O=C(O)C1=CC(=C(c2ccc(O)c(C(=O)O)c2)c2ccc(O)c(C(=O)O)c2)C=CC1=O` [ATA, aurintricarboxylic acid], the IC50 (in general, the concentration at which inhibition is half-maximal) was determined as 96 nM.
